C1CNCCNCCNCCN1
solubility (mole fraction)
Conditions | 298.15 K | 303.15 K | 308.15 K | 313.15 K | 318.15 K | 323.15 K
in isopropanol | 0.00193 | 0.00202 | 0.00213 | 0.00224 | 0.0023 | 0.00249
in methanol | 0.00266 | 0.00268 | 0.00305 | 0.00318 | 0.00321 | 0.00328
